Assay results reported in patent US8404679B2, “Pyrrolidine derivatives as NK2 receptor antagonists” (Hoffmann-La Roche Inc., priority 2008, dated 2013).

molecular target: T1, human NK2 receptor (Homo sapiens, UniProt P21452); test: [3H]SR48968 competition binding assay; details: [3H]SR48968 displacement, membranes of CHO cells stably expressing recombinant human NK2 receptor; Ki from IC50 by Cheng-Prussoff
T1 construct: purchased Perkin Elmer biosignal Inc. 6110510
T1 sequence (P21452 1-398): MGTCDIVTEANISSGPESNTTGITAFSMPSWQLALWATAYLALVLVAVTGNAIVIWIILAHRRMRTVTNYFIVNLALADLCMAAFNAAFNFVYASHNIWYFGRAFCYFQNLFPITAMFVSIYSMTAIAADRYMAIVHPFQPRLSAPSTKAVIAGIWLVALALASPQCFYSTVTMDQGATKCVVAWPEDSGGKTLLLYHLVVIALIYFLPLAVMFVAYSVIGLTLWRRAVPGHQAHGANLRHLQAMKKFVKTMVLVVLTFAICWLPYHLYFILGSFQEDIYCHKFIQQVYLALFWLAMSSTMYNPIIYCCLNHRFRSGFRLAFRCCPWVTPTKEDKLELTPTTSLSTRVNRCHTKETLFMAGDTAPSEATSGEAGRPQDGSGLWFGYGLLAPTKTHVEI
Procedure: [^3H]SR48968 Competition Binding Assay
hNK2 receptor binding experiment were performed using [^3H]SR48968 (Catalog No. TRK398, specific activity: 27.0 Ci/mmol, Amersham, GE Healthcare UK limited, Buckinghamshire, UK) and membrane isolated from CHO cells stably expressing recombinant human NK2 receptor (product No. 6110510, Perkin Elmer biosignal Inc., Shelton, Conn., USA). After thawing, the membrane homogenates were centrifuged at 48,000×g for 10 min at 4° C., the pellets were resuspended in the 50 mM Tris-HCl, 3 mM MnCl2, 4 μg/mL Chymostatin, 0.04% BSA binding buffer at pH 7.4 to a final assay concentration of 6.5 μg protein/well. For inhibition experiments, membranes were incubated with [^3H]SR48968 at a concentration equal to KD value of radioligand and 10 concentrations of the inhibitory compound (0.0003-10 μM) (in a total reaction volume of 500 μl) for 75 min at room temperature (RT). At the end of the incubation, membranes were filtered onto unitfilter (96-well white microplate with bonded GF/C filter preincubated 1 h in 0.3% polyethylenimine, Packard BioScience, Meriden, Conn.) with a Filtermate 196 harvester (Packard BioScience) and washed 4 times with ice-cold 50 mM Tris-HCl, pH 7.4 buffer. Nonspecific binding was measured in the presence of 10 μM 1-{2-[(R)-3-(3,4-dichloro-phenyl)-1-(3,4,5-trimethoxy-benzoyl)-pyrrolidin-3-yl]-ethyl}-4-phenyl-piperidine-4-carboxylic acid amide. The radioactivity on the filter was counted (5 min) on a Packard Top-count microplate scintillation counter with quenching correction after addition of 45 μl of microscint 40 (Canberra Packard S. A., Zürich, Switzerland) and shaking for 1 h. Inhibition curves were fitted according to the Hill equation: y=100/(1+(x/IC50)^nH), where nH=slope factor using Excel-fit 4 software (Microsoft). IC50 values were derived from the inhibition curve and the affinity constant (Ki) values were calculated using the Cheng-Prussoff equation Ki=IC50/(1+[L]/KD) where [L] was the concentration of radioligand and KD was its dissociation constant at the receptor, derived from the saturation isotherm.

Ki [nM] | SMILES
3.72 | COc1ccc(C(=O)N(C)[C@@H]2CN(C(=O)c3cc(Cl)nc(Cl)c3)C[C@H]2c2ccc(Cl)c(Cl)c2)cc1C(F)(F)F (racemic) [Example 52, rac-N-[(3S,4R)-4-(3,4-Dichloro-phenyl)-1-(2,6-dichloro-pyridine-4-carbonyl)-pyrrolidin-3-yl]-4-methoxy-N-methyl-3-trifluoromethyl-benzamide]
2.91 | COc1ccc(C(=O)N(C)[C@@H]2CN(C(=O)c3ccc(OC(F)(F)F)cc3)C[C@H]2c2ccc(Cl)c(Cl)c2)cc1C(F)(F)F (racemic) [Example 53, rac-N-[(3S,4R)-4-(3,4-Dichloro-phenyl)-1-(4-trifluoromethoxy-benzoyl)-pyrrolidin-3-yl]-4-methoxy-N-methyl-3-trifluoromethyl-benzamide]
3.81 | COc1ccc(C(=O)N(C)[C@@H]2CN(C(=O)c3cccc(S(C)(=O)=O)c3)C[C@H]2c2ccc(Cl)c(Cl)c2)cc1C(F)(F)F (racemic) [Example 54, rac-N-[(3S,4R)-4-(3,4-Dichloro-phenyl)-1-(3-methanesulfonyl-benzoyl)-pyrrolidin-3-yl]-4-methoxy-N-methyl-3-trifluoromethyl-benzamide]
2.06 | COc1ccc(C(=O)N2C[C@@H](N(C)C(=O)c3ccc(OC)c(C(F)(F)F)c3)[C@H](c3ccc(Cl)c(Cl)c3)C2)cc1C (racemic) [Example 55, rac-N-[(3S,4R)-4-(3,4-Dichloro-phenyl)-1-(4-methoxy-3-methyl-benzoyl)-pyrrolidin-3-yl]-4-methoxy-N-methyl-3-trifluoromethyl-benzamide]
9.52 | COc1ccc(C(=O)N(C)[C@@H]2CN(C(=O)c3cc(C)cc(C)c3)C[C@H]2c2ccc(Cl)c(Cl)c2)cc1C(F)(F)F (racemic) [Example 56, rac-N-[(3S,4R)-4-(3,4-Dichloro-phenyl)-1-(3,5-dimethyl-benzoyl)-pyrrolidin-3-yl]-4-methoxy-N-methyl-3-trifluoromethyl-benzamide]
1.55 | COc1ccc(C(=O)N(C)[C@@H]2CN(C(=O)c3ccc(C(C)=O)cc3)C[C@H]2c2ccc(Cl)c(Cl)c2)cc1C(F)(F)F (racemic) [Example 57, rac-N-[(3S,4R)-1-(4-Acetyl-benzoyl)-4-(3,4-dichloro-phenyl)-pyrrolidin-3-yl]-4-methoxy-N-methyl-3-trifluoromethyl-benzamide]
8.52 | COc1ccc(C(=O)N(C)[C@@H]2CN(C(=O)c3cc(C)n(C)n3)C[C@H]2c2ccc(Cl)c(Cl)c2)cc1C(F)(F)F (racemic) [Example 58, rac-N-[(3S,4R)-4-(3,4-Dichloro-phenyl)-1-(1,5-dimethyl-1H-pyrazole-3-carbonyl)-pyrrolidin-3-yl]-4-methoxy-N-methyl-3-trifluoromethyl-benzamide]
12.8 | CN(C(=O)c1cc(Cl)ccn1)[C@@H]1CN(C(=O)c2ccc(C#N)cc2)C[C@H]1c1ccc(Cl)c(Cl)c1 (racemic) [Example 59, rac-4-Chloro-pyridine-2-carboxylic acid [(3S,4R)-1-(4-cyano-benzoyl)-4-(3,4-dichloro-phenyl)-pyrrolidin-3-yl]-methyl-amide]
2.64 | Cc1ccnc(C(=O)N(C)[C@@H]2CN(C(=O)c3ccc(C#N)cc3)C[C@H]2c2ccc(Cl)c(Cl)c2)c1 (racemic) [Example 63, rac-4-Methyl-pyridine-2-carboxylic acid [(3S,4R)-1-(4-cyano-benzoyl)-4-(3,4-dichloro-phenyl)-pyrrolidin-3-yl]-methyl-amide]
30.2 | CCOCc1ccc(C(=O)N(C)[C@@H]2CN(C(=O)c3ccc(C#N)cc3)C[C@H]2c2ccc(Cl)c(Cl)c2)nc1 (racemic) [Example 65, rac-5-Ethoxymethyl-pyridine-2-carboxylic acid [(3S,4R)-1-(4-cyano-benzoyl)-4-(3,4-dichloro-phenyl)-pyrrolidin-3-yl]-methyl-amide]
